Source: patent publication US20110245095A1, “FAST ASSIGNMENT OF ADEQUATE CHEMOTHERAPY WITH LATINUM BASED DRUGS FOR CANCER PATIENTS BASED ON THE IDENTIFICATION OF CONSTITUTIONAL BRCAL MUTATIONS” (priority 2008, published 2011)

What was measured:
Format in all cases: in vivo, human
[1] = system: cancer of the pancreas, BRCA1 mutation carriers; test: Cisplatin chemotherapy of BRCA1 mutation carriers with pancreatic cancer (Example 3, retrospective); conditions: 1 patient
Description: (§1) The database of the oncology department at the Pomeranian Academy of Medicine, Szczecin (Poland), was retrospectively screened for patients affected by cancer types different than the breast or ovary (histologically or cytologically proven) since those cancer types had already been analyzed in Examples 1 and 2. Those patients had to be carriers of at least one constitutional mutation of the gene BRCA1, among the dominating founder mutations in Poland (CMG, 4153delA and 5382insC). The presence of a mutation was determined by the same techniques described in Example 1.
(§2) The group that qualified matching all criteria consisted of five patients affected by cancer of the colon (1 subject), the pancreas (1 subject), the gallbladder (1 subject) and the lung (2 subjects). In 60% of the cases (both lung cancer patients and the colon cancer patient) a complete remission was reported after the application of the chemotherapy. […] In none of the cases, there was a lack of response towards cisplatin.

[2] = system: cancer of colon, lung, pancreas, gallbladder, BRCA1 mutation carriers; test: Cisplatin chemotherapy of BRCA1 mutation carriers with cancer at sites other than breast and ovaries, total (Example 3); conditions: 5 patients
Description: as §1, §2

[3] = system: invasive breast cancer, pathogenic BRCA1 mutation carriers; test: Neoadjuvant cisplatin therapy in breast cancer patients carrying a constitutional BRCA1 mutation (Example 1)
Protocol: Eight patients were treated in Szczecin (Poland) and two were treated in Bielsko-Biala (Poland). In these centers, genetic testing is offered to all women with incident breast cancer.
For the purpose of this study, genetic testing was expedited; in most cases the test result was available within five days of diagnosis. Written informed consent was obtained from each patient. The protocol was approved by the Research Ethics Review Board of the Pomeranian Medical Academy.
Patients with a previous diagnosis of breast cancer, or other cancer, were excluded (three patients). Patients who received prior chemotherapy were excluded (three patients). Patients with metastatic disease (stage 1V) at presentation were excluded (one patient). One patient presented with primary breast cancer after a previous prophylactic bilateral mastectomy and was excluded.
Patients were evaluated for renal function, liver function, and hematology prior to therapy.
Prior to platinum chemotherapy, the clinical and histological features of the breast cancers were assessed. Tumor size was evaluated by clinical examination and by ultrasound, in some cases supplemented by mammogram. Histology was evaluated in nine cases by core biopsy and in one case by fine needle aspiration. For the nine cases who underwent core biopsy, grade, ER, PR, and ERBB2 status were evaluated by immuno-histochemistry. […] Grade was evaluated in the core biopsy specimen using the Bloom-Richardson classification system,
Each cycle was 21 days. Granulocyte colony-stimulating factor (G-CSF) was not given to any patient. Dexamethasone (8 mg) was administered once daily for three days after chemotherapy, Ondansetron (Zophran™; GlaxoWellcome) was used for anti-nausea prophylaxis. Toxicity (nausea, vomiting, neutropenia) was assessed using the National Cancer Institute Common Toxicity Criteria after each cycle.
Surgery was followed by post-operative chemotherapy (four cycles of Adriamycin and Cyclophosphamide). Two patients received radiotherapy.
Clinical response was considered complete if there was no evidence of the primary breast tumor according to the World Health Organization (WHO) criteria (total disappearance of the tumor in breast and lymph nodes). Clinical response was considered ‘partial’ if there was a reduction of ≧50% in the product of the two largest perpendicular diameters of the tumor. […] The primary endpoint of this study was pathologic complete response. Pathologic response was considered complete if there was no evidence of invasive breast tumor and the lymph nodes were negative. Pathology specimens were reviewed by two pathologists. If there was evidence of breast carcinoma in situ, but no evidence of invasive disease, this was still considered to be a pathologic complete response.

[4] = system: cancer of the colon, BRCA1 mutation carriers; test: Cisplatin chemotherapy of BRCA1 mutation carriers with colon cancer (Example 3, retrospective); conditions: 1 patient
Description: as §1, §2

[5] = system: cancer of the gallbladder, BRCA1 mutation carriers; test: Cisplatin chemotherapy of BRCA1 mutation carriers with gallbladder cancer (Example 3, retrospective); conditions: 1 patient
Description: as §1, §2

[6] = system: cancer of the lung, BRCA1 mutation carriers; test: Cisplatin chemotherapy of BRCA1 mutation carriers with lung cancer (Example 3, retrospective); conditions: 2 patients
Description: as §1, §2

[7] = system: disseminated breast and ovarian cancer, BRCA1 mutation carriers; test: Cisplatin chemotherapy, disseminated breast and ovarian cancer analysed together (Example 2)
Description: The patients selected for this study were retrospectively screened from the database of the oncology department at the Pomeranian Academy of Medicine, Szczecin (Poland). […] All cases were documented for the presence of a BRCA1 constitutional mutation among the dominating founder mutations in Poland (C610, 4153delA and 5382insC) determined by the same techniques described in Example 1. The tumor size had to be measurable per RECIST: X-Ray or physical examination ≧20 mm, and/or spiral CT scan≧10 mm, and/or conventional CT scan≧20 mm. Only individuals were chosen with a life expectancy a priori of at least 3 months, to exclude a technical blur due to extreme disease progression in terminal cancer cases. The maximal ECOG performance status admitted was less than or equal to 2. The definition of minimum adequacy of organ function required prior to study entry were as follows: Absolute neutrophil count (ANC)>1,500/mcl, Platelets>100,000/mcl, Haemoglobin >8 g/dl, Total Bilirubin <1.5×ULN, AST (SGOT)/ALT (SGPT)<2.5×ULN and Creatinine within the normal institutional limits. All patients signed their willingness and ability to comply with scheduled visits, treatment plans, laboratory tests, and other study procedures. A total of 15 patients matched the selection criteria with ages at diagnosis ranging from 32 to 70 years and mean age at diagnosis of 48 years.
Ovarian cancer patients were selected following the same selection criteria. Four individuals matched the criteria with ages at diagnosis ranging from 42 to 45 years and mean age at diagnosis of 43.5 years.
The response assessment was based on a complete tumor measurement form (the form is carried forward continuously from cycle to cycle). Possible responses were complete response, partial response, stable disease and progressive disease, according to international oncology standards.

[8] = system: disseminated ovarian cancer, BRCA1 mutation carriers; test: Cisplatin chemotherapy of BRCA1 mutation carriers with disseminated ovarian cancer (Example 2, retrospective); conditions: 4 patients
Description: The patients selected for this study were retrospectively screened from the database of the oncology department at the Pomeranian Academy of Medicine, Szczecin (Poland). […] All cases were documented for the presence of a BRCA1 constitutional mutation among the dominating founder mutations in Poland (C610, 4153delA and 5382insC) determined by the same techniques described in Example 1. The tumor size had to be measurable per RECIST: X-Ray or physical examination ≧20 mm, and/or spiral CT scan≧10 mm, and/or conventional CT scan≧20 mm. Only individuals were chosen with a life expectancy a priori of at least 3 months, to exclude a technical blur due to extreme disease progression in terminal cancer cases. The maximal ECOG performance status admitted was less than or equal to 2. […]

[9] = N = 10, after mastectomy and lymph node dissection
[10] = neoadjuvant cisplatin 75 mg/m^2 every three weeks, N = 10

N.N.[Cl][Pt][Cl] [cisplatin, cis-diamminedichloridoplatinum(II)]
No response, number of patients [1]: 0 | Response: SD, number of patients [1]: 1 | Response: CR, % of patients [2]: 60% | Response: CR, number of patients [2]: 3 | Response: PR, % of patients [2]: 20% | Response: PR, number of patients [2]: 1 | Response: SD, % of patients [2]: 20% | Response: SD, number of patients [2]: 1 | patients with at least a partial remission [2]: 80% | Clinical Response: No Change, % ([3]; N = 10): 0% | Clinical Response: No Change, No. ([3]; N = 10): 0 | Clinical Response: Partial Response, % ([3]; N = 10): 10% | Clinical Response: Partial Response, No. ([3]; N = 10): 1 | Clinical Response: Progressive Disease, % ([3]; N = 10): 0% | Clinical Response: Progressive Disease, No. ([3]; N = 10): 0 | Number of Lymph Nodes Positive: 0, % ([3]; N = 10): 90% | Number of Lymph Nodes Positive: 0, No. ([3]; N = 10): 9 | Number of Lymph Nodes Positive: 1-3, % ([3]; N = 10): 10% | Number of Lymph Nodes Positive: 1-3, No. ([3]; N = 10): 1 | Number of Lymph Nodes Positive: 4-9, % ([3]; N = 10): 0% | Number of Lymph Nodes Positive: 4-9, No. ([3]; N = 10): 0 | Number of Lymph Nodes Positive: >9, % ([3]; N = 10): 0% | Number of Lymph Nodes Positive: >9, No. ([3]; N = 10): 0 | Pathologic Response: No Response, % ([3]; N = 10): 0% | Pathologic Response: No Response, No. ([3]; N = 10): 0 | Pathologic Response: Partial Reseponse, % ([3]; N = 10): 10% | Pathologic Response: Partial Reseponse, No. ([3]; N = 10): 1 | Residual Disease in Breast: 1-3 cm, % ([3]; N = 10): 0% | Residual Disease in Breast: 1-3 cm, No. ([3]; N = 10): 0 | Residual Disease in Breast: 4-9 cm, % ([3]; N = 10): 0% | Residual Disease in Breast: 4-9 cm, No. ([3]; N = 10): 0 | Residual Disease in Breast: <1 cm, % ([3]; N = 10): 0% | Residual Disease in Breast: <1 cm, No. ([3]; N = 10): 0 | Residual Disease in Breast: >9 cm, % ([3]; N = 10): 0% | Residual Disease in Breast: >9 cm, No. ([3]; N = 10): 0 | Residual Disease in Breast: none, % ([3]; N = 10): 100% | Residual Disease in Breast: none, No. ([3]; N = 10): 10 | grade 3 or 4 anemia ([3]; N = 10): No grade 3 or 4 anemia was observed | patients with febrile neutropenia ([3]; N = 10): No patient | Pathologic Response: Complete Pathologic Response, % [3, 9]: 90% | Pathologic Response: Complete Pathologic Response, No. [3, 9]: 9 | patients who stopped due to side effects (nausea and vomiting) ([3]; N = 10, stopped after two cycles): One patient | complete pathologic response, patients who completed treatment ([3]; four cycles of cisplatin, seven patients): all seven | Clinical Response: Complete Response, % [3, 10]: 90% | Clinical Response: Complete Response, No. [3, 10]: 9 | pathologic complete response, patients who received two cycles ([3]; two cycles, three patients): two | No response, number of patients [4]: 0 | Response: CR, number of patients [4]: 1 | No response, number of patients [5]: 0 | Response: PR, number of patients [5]: 1 | No response, number of patients [6]: 0 | Response: CR, number of patients [6]: 2 | No response, % of patients ([7]; 19 patients): 21% | No response, number of patients ([7]; 19 patients): 4 | Response: CR, % of patients ([7]; 19 patients): 53% | Response: CR, number of patients ([7]; 19 patients): 10 | Response: PR, % of patients ([7]; 19 patients): 16% | Response: PR, number of patients ([7]; 19 patients): 3 | Response: SD, % of patients ([7]; 19 patients): 10% | Response: SD, number of patients ([7]; 19 patients): 2 | patients responsive to the therapy ([7]; 19 patients, CR + PR + SD): 79% | adverse effects: anemia, cases ([7]; Example 2 patients): 1 case | adverse effects: nausea, cases ([7]; Example 2 patients): 2 cases | adverse effects: neutropenia, cases ([7]; Example 2 patients): 6 cases | No response, number of patients [8]: 0 | Response: PR (partial response), number of patients [8]: 0
